SMILES strings stand for the structures.

The test concerns the target T1, HIV-integrase (recombinant integrase) (Human immunodeficiency virus type 1 group M subtype B, UniProt P12497).
T1 construct: Recombinant integrase (0.26 ng) was incubated with the beads
The test is described as follows: HIV-Integrase Inhibition Activity (SPA bead strand-transfer assay). Type of test: biochemical. The settings on record: biotin labeled substrate DNA on SPA beads, P33 labeled target DNA, read-out: Activity (IC50 against HIV-integrase). How it is done: HIV-Integrase Inhibition Activity. To evaluate in-vitro activity against HIV-integrase, 5 pmole of biotin labeled substrate DNA was bound to 100 μg of Streptavidin coated PVT SPA beads (Amersham Pharmacia Biotech). Recombinant integrase (0.26 ng) was incubated with the beads for 90 min at 37° C. Unbound enzyme was removed by washing the complex followed by addition of inhibitors and 0.1 fmol of P33 labeled target DNA. The reaction was stopped by adding EDTA to a final concentration of 10 mM. Samples were counted in TopCountNXT (Packard) and the CPM was used as a measure of integration. The reaction condition was as described in A. Engelman and R. Craigie, J. Virol. 69, 5908-5911 (1995). The sequences of substrate and target DNA were described in Nucleic Acid Research 22, 1121-1122 (1994). Activity equal to A refers to a compound having IC50=0.002 to 0.10 μM while B and C denote compounds having IC50=0.1 to 1.0 μM and IC50≧1.0 μM respectively.
For orientation: IC50 means the concentration that gives 50% inhibition. For `Cc1ncnn1-c1cc(F)ccc1CNC(=O)c1nc2n(c(=O)c1O)CCS(=O)(=O)C21CCOCC1` [Example 18, Spiro[4H-pyran-4,9′(4′H)-pyrimido[2,1-c][1,4]thiazine]-2′-carboxamide, N-[[4-fluoro-2-(5-methyl-1H-1,2,4-triazol-1-yl)phenyl]methyl]-2,3,5,6,6′,7′-hexahydro-3′-hydroxy-4′-oxo-, 8′,8′-dioxide], the IC50 was 2 to 100 nM.
`Cc1ncnn1-c1cc(F)ccc1CNC(=O)c1nc2n(c(=O)c1O)CCS(=O)(=O)C21CCCC1` [Example 15, Spiro[cyclopentane-1,9′(4′H)-pyrimido[2,1-c][1,4]thiazine]-2′-carboxamide, N-[[4-fluoro-2-(5-methyl-1H-1,2,4-triazol-1-yl)phenyl]methyl]-6′,7′-dihydro-3′-hydroxy-4′-oxo-, 8′,8′-dioxide]: the IC50 lay within 2 to 100 nM.
To `Cc1ncnn1-c1cc(F)ccc1CNC(=O)c1nc2n(c(=O)c1O)CCS(=O)(=O)C21CC1` [Example 11, Spiro[cyclopropane-1,9′(4′H)-pyrimido[2,1-c][1,4]thiazine]-2′-carboxamide, N-[[4-fluoro-2-(5-methyl-1H-1,2,4-triazol-1-yl)phenyl]methyl]-6′,7′-dihydro-3′-hydroxy-4′-oxo-, 8′,8′-dioxide] belongs 2 to 100 nM; to `O=C(NCc1ccc(F)cc1)c1nc2n(c(=O)c1O)CCS(=O)(=O)C21CCCC1` [Example 12, Spiro[cyclopentane-1,9′(4′H)-pyrimido[2,1-c][1,4]thiazine]-2′-carboxamide, N-[(4-fluorophenyl)methyl]-6′,7′-dihydro-3′-hydroxy-4′-oxo-, 8′,8′-dioxide], 2 to 100 nM.

These data come from patent publication US7897592B2, “HIV integrase inhibitors” (priority 2005, dated 2011).
